Test results taken from publication PMC2801581 (Journal of medicinal chemistry, 2009).
Where two headings read alike, the source gives them in different places.

Key:
Assay type in all cases: biochemical
LYP = target: T1, LYP (Homo sapiens, UniProt Q9Y2R2); test: LYP inhibition assay with fluorogenic substrates; settings: for LYP versus PTP-PEST inhibition in comparative library screen: nominal 5 µM, DiFMUP and peptide 1; for IC50: pH 6.5; for selectivity for LYP over PTP-PEST in dose-response screens: in vitro, Table 1
T1 sequence (Q9Y2R2 2-309): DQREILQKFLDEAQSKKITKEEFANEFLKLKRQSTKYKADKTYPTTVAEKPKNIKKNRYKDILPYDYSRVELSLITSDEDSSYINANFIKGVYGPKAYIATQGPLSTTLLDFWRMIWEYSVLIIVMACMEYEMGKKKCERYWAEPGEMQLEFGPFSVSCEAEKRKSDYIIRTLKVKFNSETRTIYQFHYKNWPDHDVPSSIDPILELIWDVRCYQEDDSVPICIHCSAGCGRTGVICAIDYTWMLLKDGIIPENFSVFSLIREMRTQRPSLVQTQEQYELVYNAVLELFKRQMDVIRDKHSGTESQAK

CD45 = target: T2, CD45 (Homo sapiens, UniProt P08575); test: CD45 counterscreen; settings: read-out: IC50 CD45 (DiFMUP)
T2 sequence (P08575 653-912 limits assumed): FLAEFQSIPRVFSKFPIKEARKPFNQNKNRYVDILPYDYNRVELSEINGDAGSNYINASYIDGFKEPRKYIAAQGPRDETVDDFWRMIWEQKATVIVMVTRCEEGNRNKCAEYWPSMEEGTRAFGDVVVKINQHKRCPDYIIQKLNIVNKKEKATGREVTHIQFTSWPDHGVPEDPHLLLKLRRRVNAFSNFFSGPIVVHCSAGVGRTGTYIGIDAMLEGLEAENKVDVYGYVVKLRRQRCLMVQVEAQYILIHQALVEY

PTP-PEST = target: T3, PTP-PEST (Homo sapiens, UniProt Q05209); test: PTP-PEST inhibition assay with fluorogenic substrates; settings: pH 6.5
T3 sequence (Q05209 2-323): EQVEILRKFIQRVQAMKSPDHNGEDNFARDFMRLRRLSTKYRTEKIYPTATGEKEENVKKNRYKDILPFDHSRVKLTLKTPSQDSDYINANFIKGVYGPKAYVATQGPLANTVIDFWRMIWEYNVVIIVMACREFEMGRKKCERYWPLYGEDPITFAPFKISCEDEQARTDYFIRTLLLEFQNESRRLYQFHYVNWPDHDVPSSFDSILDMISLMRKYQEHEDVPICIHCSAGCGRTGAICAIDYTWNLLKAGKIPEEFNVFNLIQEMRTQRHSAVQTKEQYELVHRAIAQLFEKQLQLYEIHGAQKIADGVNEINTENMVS

HePTP = target: T4, HePTP (Homo sapiens, UniProt P35236); test: HePTP counterscreen; settings: read-out: IC50 HePTP (DiFMUP)
T4 sequence (P35236 65-360): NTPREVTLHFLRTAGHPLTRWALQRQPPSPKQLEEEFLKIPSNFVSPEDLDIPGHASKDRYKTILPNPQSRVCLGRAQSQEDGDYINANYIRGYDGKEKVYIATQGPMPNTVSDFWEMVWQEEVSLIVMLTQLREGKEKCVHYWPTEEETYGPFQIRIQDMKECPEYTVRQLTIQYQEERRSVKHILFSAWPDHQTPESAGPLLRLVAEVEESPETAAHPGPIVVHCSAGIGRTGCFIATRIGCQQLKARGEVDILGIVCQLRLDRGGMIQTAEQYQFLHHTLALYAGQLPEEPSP

TCPTP = target: T5, TCPTP (Homo sapiens, UniProt P17706); test: TCPTP inhibition assay with fluorogenic substrates; settings: pH 7.1
T5 sequence (P17706 5-275 limits assumed): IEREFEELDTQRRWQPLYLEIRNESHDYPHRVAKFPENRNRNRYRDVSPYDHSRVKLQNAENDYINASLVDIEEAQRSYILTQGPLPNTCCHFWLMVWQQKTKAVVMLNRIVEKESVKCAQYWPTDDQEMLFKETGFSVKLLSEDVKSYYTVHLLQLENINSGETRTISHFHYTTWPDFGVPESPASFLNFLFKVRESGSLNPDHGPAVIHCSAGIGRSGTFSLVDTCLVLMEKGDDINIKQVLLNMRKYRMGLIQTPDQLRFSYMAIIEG

PTP1B = target: T6, PTP1B (Homo sapiens, UniProt P18031); test: PTP1B inhibition assay with fluorogenic substrates; settings: for IC50: pH 7.1
T6 sequence (P18031 3-277 limits assumed): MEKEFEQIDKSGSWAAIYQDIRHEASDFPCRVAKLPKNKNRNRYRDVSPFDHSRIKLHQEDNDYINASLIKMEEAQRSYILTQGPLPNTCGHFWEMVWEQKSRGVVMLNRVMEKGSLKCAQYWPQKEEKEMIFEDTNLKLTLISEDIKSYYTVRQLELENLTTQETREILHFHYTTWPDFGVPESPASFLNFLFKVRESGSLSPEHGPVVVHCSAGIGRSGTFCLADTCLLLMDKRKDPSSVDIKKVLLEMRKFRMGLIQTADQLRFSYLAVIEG

[1] = read-out: IC50 LYP (DiFMUP), substrate DiFMUP 1.5 µM
[2] = read-out: IC50 LYP (peptide 1), substrate peptide 1 10 µM
[3] = read-out: IC50 PEST (DiFMUP), substrate DiFMUP 1.5 µM
[4] = read-out: IC50 PEST (peptide 1), substrate peptide 1 10 µM

SMILES: O=S(=O)(O)c1cccc([P+]([Au-][Cl])(c2ccccc2)c2ccccc2)c1 [Compound 12, 3-(Diphenylphosphino)benzenesulfonic acid-Au(I)-Cl]
- LYP versus PTP-PEST inhibition in comparative library screen (LYP): appear LYP-selective when DiFMUP is used in the assay, but not when the peptide is used
- IC50 (LYP; [1]): 2 ± 0.1 µM
- IC50 (LYP; [2]): 1.9 ± 0.2 µM
- selectivity for LYP over PTP-PEST (LYP; with DiFMUP as substrate): 35 fold
- selectivity for LYP over PTP-PEST (LYP; with peptide 1 as substrate): 2 fold
- IC50 (CD45): > 70 µM
- IC50 (PTP-PEST; read-out: IC50 PEST (DiFMUP)): 70 ± 2 µM
- IC50 (PTP-PEST; read-out: IC50 PEST (peptide 1)): 4 ± 0.2 µM
- IC50 (HePTP): 40 ± 1 µM

SMILES: [Cl][Au][PH](c1ccco1)(c1ccco1)c1ccco1 [Compound 19, Tri-2-furylphosphine-Au(I)-Cl]
- IC50 (TCPTP; read-out: IC50 TCPTP (DiFMUP), substrate DiFMUP 1.5 µM): 2.4 ± 0.2 µM
- IC50 (TCPTP; read-out: IC50 TCPTP (peptide 2), substrate peptide 2 60 µM): 2.2 ± 0.3 µM
- selectivity between PTP1B and TCPTP in dose-response screens (PTP1B; Table 2): selective for PTP1B with both substrates
- PTP1B inhibition in library screen, peptide 2 versus DiFMUP (PTP1B; nominal 5 µM): inhibit PTP1B better with peptide 2 than with DiFMUP
- IC50 (PTP1B; read-out: IC50 PTP1B (DiFMUP), substrate DiFMUP 1.5 µM): 0.33 ± 0.02 µM
- IC50 (PTP1B; read-out: IC50 PTP1B (peptide 2), substrate peptide 2 60 µM): 0.2 ± 0.02 µM

SMILES: CP(C)c1ccccc1.[Cl][Au] [Compound 13, Dimethylphenylphosphine-Au(I)-Cl]
- selectivity for LYP over PTP-PEST in dose-response screens (LYP): selective for LYP over the ~ 70% identical PTP-PEST
- LYP versus PTP-PEST inhibition in comparative library screen (LYP): more potent inhibitors of LYP than PTP-PEST regardless of the substrate used
- IC50 (LYP; [1]): 3.5 ± 0.3 µM
- IC50 (LYP; [2]): 2 ± 0.3 µM
- IC50 (CD45; substrate DiFMUP): > 100 µM
- IC50 (PTP-PEST; [3]): 70 ± 2 µM
- IC50 (PTP-PEST; [4]): 30 ± 2 µM
- IC50 (HePTP; substrate DiFMUP): > 50 µM

SMILES: N#CCC[P+](CCC#N)([Au-][Cl])c1ccccc1 [Compound 28, Bis(2-cyanoethyl)phenylphosphine-Au(I)-Cl]
- selectivity for LYP over PTP-PEST in dose-response screens (LYP): selective for LYP over the ~ 70% identical PTP-PEST
- IC50 (LYP; [1]): 3.5 ± 0.1 µM
- IC50 (LYP; [2]): 2.5 ± 0.6 µM
- IC50 (CD45; substrate DiFMUP): > 70 µM
- IC50 (PTP-PEST; [3]): > 80 µM
- IC50 (PTP-PEST; [4]): 33 ± 1 µM
- IC50 (HePTP; substrate DiFMUP): > 50 µM
